Calls of active or inactive are those of the source. The calls are words filed in the database; no cut-off is given here. A value given as a limit tells only on which side of the number the result lay.

The EC50 is the midpoint of the concentration-response curve. As a reminder, the CC50 is the concentration at which the toxic effect on the cells reaches its halfway point. Usually IC90 stands for the concentration needed for an effect of 90%. The ED50 is the dose at which the effect has come halfway, by size or by number of responders. The term EC90 denotes the point of the concentration-response curve where the effect stands at 90%. One may read the logP as a log measure of how a compound divides between an organic and an aqueous phase.

Data set [1] concerns Plasmodium yoelii. Briefly: Antimalarial activity against Plasmodium yoelii infected in swiss mouse assessed as reduction in parasitemia at 96 mg/kg, po relative to control. It is filed as functional. Set-up: scale not given: the % may be the effect or the level left.
The test system of data set [2] is Plasmodium falciparum. Briefly: Antiplasmodial activity against Plasmodium falciparum W2. It is filed as functional, organism-based.
In data set [3] the test system is Plasmodium falciparum. Briefly: Antiplasmodial activity against Plasmodium falciparum D6. It is filed as functional, organism-based.
For data set [4], the system named is Plasmodium falciparum. The data set can be described thus: Selectivity ratio of IC50 for antiplasmodial activity against Plasmodium falciparum W2 to IC50 for antiplasmodial activity against Plasmodium falciparum D6. It is filed as functional.
Data set [5] deals with Plasmodium berghei. Briefly: Antimalarial activity against liver stage Plasmodium berghei. It is filed as functional, organism-based.
The next data set has as its system Caco-2. Briefly: Cytotoxicity against human Caco-2 cells assessed as reduction in cell viability. It is filed as functional.
Data set [6] relates to Plasmodium falciparum. The data set can be described thus: Antiplasmodial activity against Plasmodium falciparum K1. It is filed as functional, organism-based.
In data set [7] the test system is Plasmodium falciparum. Briefly: Antiplasmodial activity against Plasmodium falciparum D10. It is filed as functional, organism-based.
Data set [8] relates to Plasmodium falciparum. Briefly: Resistance index, ratio of IC50 for antiplasmodial activity against Plasmodium falciparum K1 to IC50 for antiplasmodial activity against Plasmodium falciparum D10. It is filed as functional.
A further data set deals with HeLa. The data set can be described thus: Antiproliferative activity against human HeLa cells assessed as cell growth inhibition. It is filed as functional, cell-based.
A short description of data set [9]: Therapeutic index, ratio of IC50 for antiproliferative activity against human HeLa cells to IC50 for antiplasmodial activity against Plasmodium falciparum K1. It is filed as toxicity, cell-based.
The test system of a further data set is Hemozoin. Briefly: Inhibition of Beta-hematin in Plasmodium falciparum.
Data set [10] relates to Plasmodium falciparum. Briefly: Antiplasmodial activity against Plasmodium falciparum TM91C235. It is filed as functional, organism-based.
Data set [11] has as its system Plasmodium berghei. The data set can be described thus: Antimalarial activity against Plasmodium berghei KBG 173 infected in ICR mouse assessed as animal survival at 320 mg/kg/day, po qd administered 3 to 5 days post infection. It is filed as functional, organism-based. To be noted: time 3-5 day.
The test system of data set [12] is Plasmodium berghei. The data set can be described thus: Antimalarial activity against Plasmodium berghei KBG 173 infected in ICR mouse assessed as animal survival at 80 mg/kg/day, po qd administered 3 to 5 days post infection. It is filed as functional, organism-based. To be noted: time 3-5 day.
Data set [13] concerns Plasmodium berghei. Briefly: Antimalarial activity against Plasmodium berghei KBG 173 infected in ICR mouse assessed as animal survival at 20 mg/kg/day, po qd administered 3 to 5 days post infection. It is filed as functional, organism-based. To be noted: time 3-5 day.
For data set [14], the system named is Plasmodium berghei. Briefly: Antimalarial activity against Plasmodium berghei KBG 173 infected in ICR mouse assessed as survival time at 320 mg/kg/day, po qd administered 3 to 5 days post infection. It is filed as functional. To be noted: time 3-5 day.
The test system of data set [15] is Plasmodium berghei. Briefly: Antimalarial activity against Plasmodium berghei KBG 173 infected in ICR mouse assessed as survival time at 80 mg/kg/day, po qd administered 3 to 5 days post infection. It is filed as functional. To be noted: time 3-5 day.
In data set [16] the test system is Plasmodium berghei. Briefly: Antimalarial activity against Plasmodium berghei KBG 173 infected in ICR mouse assessed as survival time at 20 mg/kg/day, po qd administered 3 to 5 days post infection. It is filed as functional. To be noted: time 3-5 day.
For data set [17], the system named is Plasmodium berghei. Briefly: Antimalarial activity against Plasmodium berghei infected in mouse assessed as reduction in parasitemia. It is filed as functional.
The subject of data set [18] is Plasmodium yoelii. The data set can be described thus: Antimalarial activity against Plasmodium yoelii infected in mouse assessed as reduction in parasitemia. It is filed as functional.
Data set [19] deals with Plasmodium falciparum. The data set can be described thus: Antiplasmodial activity against Plasmodium falciparum. It is filed as functional, organism-based.
A short description of data set [20]: Lipophilicity, logP of compound. It is filed as physicochemical. To be noted: octanol/water.
In data set [21] the test system is Plasmodium berghei. Briefly: Antiplasmodial activity against Plasmodium berghei N infected in sc dosed mouse assessed as reduction in parasitemia. It is filed as functional.
Data set [22] has as its system Plasmodium falciparum. The data set can be described thus: Antiplasmodial activity against Plasmodium falciparum NF54. It is filed as functional, organism-based.
In data set [23] the test system is Plasmodium falciparum. Briefly: Antimalarial activity against chloroquine resistant Plasmodium falciparum FcB1. It is filed as functional, organism-based.
In data set [24] the test system is Plasmodium falciparum. The data set can be described thus: Antiplasmodial activity against Plasmodium falciparum FcM29. It is filed as functional, organism-based.

Regarding `C=C(c1ccccc1)C1COC2(CCC(NCCNc3ccnc4cc(Cl)ccc34)CC2)OO1` (stereo not given), the Activity in the data set on Plasmodium yoelii [1] is 89%.
In the case of `Cc1cccc(C)c1Nc1nc(OCc2cn(CCCNc3ccnc4cc(Cl)ccc34)nn2)nc(N(C)C)n1`, the IC50 in the data set with Plasmodium falciparum [2] worked out at 0.73 µM; in the data set with Plasmodium falciparum [3], 0.58 µM. The “Ratio IC50” value with Plasmodium falciparum [4] is more than 11.1.
`COc1cc(NC(C)CCCNC(=O)C2CCC3(CC2)OOC2(OO3)C3CC4CC(C3)CC2C4)c2nccc(Cl)c2c1` (stereo not given): the EC50 in the data set on Plasmodium falciparum [2] came out at 0.075 µM; in the data set with Plasmodium berghei [5], 2.81 µM. Also, the CC50 in the data set on Caco-2 is more than 50000 µM.
On the same counts, the results for `COc1cc(NC(C)CCCNC(=O)C2CCC3(CC2)OOC2(OO3)C3CC4CC(C3)CC2C4)c2nccc(F)c2c1` (stereo not given) are 0.057 µM, 2.38 µM and more than 50000 µM.
For `C[C@@H]1CC[C@H]2[C@@H](C)C(OCc3ccc(C(=O)N(CCNc4ccnc5cc(Cl)ccc45)CC(=O)NC(C)(C)C)cc3)O[C@@H]3O[C@]4(C)CC[C@@H]1[C@]32OO4.O=C(O)CC(O)(CC(=O)O)C(=O)O` (stereo not given in full), the IC50 with Plasmodium falciparum [6] stood at 0.018 µM; in the data set on Plasmodium falciparum [7], 0.024 µM; in the data set with HeLa (hela), 0.356 µM; in the data set with Hemozoin, 0.4 equiv. Also, the “Ratio IC50” value is reported as 0.7 in the data set with Plasmodium falciparum [8] and 20 in data set [9].
Take `COc1cc(NC(C)CCCNC(=O)C2CCC3(CC2)OOC2(OO3)C3CC4CC(C3)CC2C4)c2nccc(C(F)(F)F)c2c1` (stereo not given): the concentration for a half-maximal effect (EC50) with Plasmodium falciparum [2] came out at 0.06 µM; with Plasmodium berghei [5] it was 4.12 µM. In addition, the CC50 in the data set on Caco-2 was more than 50000 µM.
The corresponding values for `COc1cc(NC(C)CCCNC(=O)C2CCC3(CC2)OOC2(OO3)C3CC4CC(C3)CC2C4)c2nccc(Br)c2c1` (stereo not given) are 0.061 µM, 4.44 µM and more than 50000 µM.
Take `C[C@@H]1CC[C@H]2[C@@H](C)C(OCc3ccc(C(=O)N(CCNc4ccnc5cc(Cl)ccc45)CC(=O)NC(C)(C)C)cc3)O[C@@H]3O[C@]4(C)CC[C@@H]1[C@]32OO4` (stereo not given in full): the IC50 with Plasmodium falciparum [6] (Plasmodium falciparum, K1) turned out to be 0.019 µM; with Plasmodium falciparum [7] (Plasmodium falciparum, D10), 0.027 µM; with HeLa (Homo sapiens, HeLa), 0.496 µM; with Hemozoin it was 0.44 equiv. For the same compound, the “Ratio IC50” value with Plasmodium falciparum [8] was determined as 0.6. Also, the selectivity ratio in [9] (HeLa cells, read-out: Ratio IC50) came to 26.
`O=C(NCCNc1ccnc2cc(Cl)ccc12)C1CCC2(CC1)OOC1(CCCCC1)OO2`: in the data set with Plasmodium falciparum [10], the 90% effect level (IC90) was put at 0.00378 µM. For the same compound, the result in the data set with Plasmodium berghei [11] and in the data set on Plasmodium berghei [12] was Active. In addition, in the data set with Plasmodium berghei [13], the outcome was inactive. Moreover, the figures for the Time with Plasmodium berghei [14], in the data set on Plasmodium berghei [15] and in the data set on Plasmodium berghei [16] were more than 31 days, 26.2 days and 14.2 days, respectively.
Take `C[C@@H]1CC[C@H]2[C@@H](C)C(N3CCS(=O)(=O)CC3)O[C@@H]3O[C@]4(C)CC[C@@H]1[C@]32OO4` (stereo not given in full): the figures for the ED50 with Plasmodium berghei [17] and with Plasmodium yoelii [18] were 1.5 mg/kg and 3.9 mg/kg, respectively. Besides, in the data set on Plasmodium falciparum [19], the midpoint of the response, the EC50, lay at 0.00014 µM. In the data set with Plasmodium falciparum [19], this compound had an EC90 of 0.00255 µM. Further, the logP in data set [20] turned out to be 2.49.
With `C[C@@H]1CC[C@H]2[C@@H](C)C(c3cccn3C)O[C@@H]3O[C@]4(C)CC[C@@H]1[C@]32OO4` (stereo not given in full), in the data set with Plasmodium berghei [21], the ED50 amounted to 0.7 mg/kg. In the data set with Plasmodium falciparum [22], this compound had an IC50 of 0.0046 µM.
Consider `CC(C)C1=C[C@H]2OC3(CCC(NCCNc4ccnc5cc(Cl)ccc45)CC3)OO[C@@]2(C)CC1` (stereo not given in full), for which the IC50 with Plasmodium falciparum [19] is 0.009 µM; in the data set on Plasmodium falciparum [23], 0.006 µM; in the data set on Plasmodium falciparum [24] it was 0.021 µM.

The record behind these values is ChEMBL document CHEMBL5241075, “Advancement of chimeric hybrid drugs to cure malaria infection: An overview with special emphasis on endoperoxide pharmacophores” (Eur J Med Chem, 2021).
